# From PubChem BioAssay (NCI)
#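 Dose response: 5 concentrations. Exposure: 48 h. Format: 96-well plates. Endpoint: linear interpolation; highest concentration if not reached. The concentration for 50% growth inhibition is given as GI50. TGI is the concentration that stops growth completely.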
# Legend:
# Experiment in all cases: NCI anticancer screen, dose series, 48 h
# A498 renal = system: A498 renal
# HCC-2998 colon = system: HCC-2998 colon
# HL-60(TB) leukemia = system: HL-60(TB) leukemia
# HS 578T breast = system: HS 578T breast
# OVCAR-3 ovarian = system: OVCAR-3 ovarian
# SR leukemia = system: SR leukemia
# T-47D breast = system: T-47D breast
# UACC-257 melanoma = system: UACC-257 melanoma
# UACC-62 melanoma = system: UACC-62 melanoma
# SK-OV-3 ovarian = system: SK-OV-3 ovarian
Structure (SMILES),GI50 (A498 renal) [µM],TGI (A498 renal) [µM],GI50 (HCC-2998 colon) [µM],TGI (HCC-2998 colon) [µM],GI50 (HL-60(TB) leukemia) [µM],TGI (HL-60(TB) leukemia) [µM],GI50 (HS 578T breast) [µM],TGI (HS 578T breast) [µM],GI50 (OVCAR-3 ovarian) [µM],TGI (OVCAR-3 ovarian) [µM],GI50 (SR leukemia) [µM],TGI (SR leukemia) [µM],GI50 (T-47D breast) [µM],TGI (T-47D breast) [µM],GI50 (UACC-257 melanoma) [µM],TGI (UACC-257 melanoma) [µM],GI50 (UACC-62 melanoma) [µM],TGI (UACC-62 melanoma) [µM],GI50 (SK-OV-3 ovarian) [µM],TGI (SK-OV-3 ovarian) [µM]
O=C(Nc1cnc(C(F)(F)F)cn1)c1cc(Cl)ccc1O,0.235,0.639,0.294,4.6,0.279,0.654,0.335,26.4,0.279,20.3,0.347,2.19,0.238,0.851,0.267,0.781,0.191,1.48,–,–
CCSc1nc(N)c(C#N)c(-c2ccco2)c1C#N,26.5,> 100,–,–,39.8,> 100,33.9,> 100,91.3,> 100,20.2,> 100,–,–,31.7,80.2,32.6,> 100,53.3,> 100
CC(=O)NNc1nc(C)c(C(=O)/C=C/c2ccc(/C=C/C(=O)c3sc(NNC(C)=O)nc3C)cc2)s1,–,–,–,> 100,–,> 100,–,–,–,> 100,–,> 100,–,–,–,> 100,–,> 100,–,> 100
NC(=O)C12CC3CC(CC(Br)(C3)C1)C2,–,> 100,–,> 100,–,> 100,–,–,–,> 100,–,> 100,–,–,–,> 100,–,> 100,–,> 100
CC(C)=Nn1cnc(C(=N)C#N)c1N,–,–,–,> 100,–,> 100,–,–,–,> 100,–,> 100,–,–,–,> 100,–,> 100,–,> 100
[N-]=[N+]=NC[C@H]1OCO[C@H](CN=[N+]=[N-])[C@H]2OCCOCCOc3ccccc3OCCOCCO[C@@H]21,–,–,–,> 100,–,> 100,–,> 100,–,> 100,–,–,–,> 100,–,> 100,–,> 100,–,> 100
COC(=O)/C(C#N)=C1\CCc2ccccc21,–,> 100,–,> 100,–,> 100,–,–,–,> 100,–,–,–,–,–,> 100,–,> 100,–,> 100
CCCCc1c2c(nc3c1CCc1cc4cc5c(nc4nc1-3)-c1nc3c(c(CCCC)c1CC5)CCC/C3=C\c1ccccc1)/C(=C/c1ccccc1)CCC2,–,–,–,> 100,–,> 100,–,–,–,> 100,–,> 100,–,–,–,> 100,–,> 100,–,> 100
Cc1ccc(NC(=O)CC2SC(N)=NC2=O)cc1C (stereo not given),–,–,–,> 100,–,> 100,–,–,–,> 100,–,> 100,–,–,–,> 100,–,> 100,–,> 100
CC1=C(Cl)C[C@@H](/C(C)=C\Cl)O[C@@]1(O)C(Br)Br,–,98.4,–,99.6,–,38.1,–,> 100,–,31.3,–,84.6,–,–,–,> 100,–,> 100,–,> 100
Cc1ccc(N=C2SC(c3ccc(C)cc3)(c3ccc(C)cc3)c3ccccc32)cc1,–,> 100,–,> 100,–,> 100,–,> 100,–,> 100,–,–,–,> 100,–,> 100,–,> 100,–,> 100
COc1ccc2c(c1)/C(=C\c1c[nH]c3ccc(OC)cc13)C(=O)N2,1.82,6.47,3.77,14.7,2.97,6.07,2.33,7.66,3.65,13.6,2.39,7.9,2.99,13.4,–,–,2.76,11.3,2.58,8.64
Nc1ncnc2c1nnn2C1C=C(CO)C(O)C1O (stereo not given),–,> 100,–,> 100,–,28.5,–,–,–,> 100,–,–,–,–,–,> 100,–,> 100,–,> 100
CSc1nc(C#N)c(N)n1C,–,> 100,–,–,–,> 100,–,> 100,–,> 100,–,> 100,–,> 100,–,> 100,–,> 100,–,> 100
Cc1cc(C)nc(NS(=O)(=O)c2ccc(NC(=O)c3cccn4c(=O)c5ccccc5nc34)cc2)n1,–,–,–,> 100,–,44.1,–,–,–,–,–,> 100,–,–,–,–,–,51.9,–,–
Nc1ccc(C(=O)N/C(=C\c2cccc([N+](=O)[O-])c2)c2nc3ccc(Cl)cc3[nH]2)cc1,–,–,–,> 100,–,–,–,–,–,> 100,–,> 100,–,–,–,–,–,> 100,–,> 100
CC(=O)C12C[C@](C#N)(N3CCCCCC3)C1C=Cc1ccccc12 (stereo not given in full),–,–,–,> 100,–,> 100,–,> 100,–,> 100,–,> 100,–,> 100,–,> 100,–,> 100,–,> 100
COC(=O)/C(=C\c1ccco1)P(=O)(OC)OC,–,> 100,–,> 100,–,–,–,> 100,–,81.6,–,> 100,–,> 100,–,> 100,–,> 100,–,> 100
C/C(=C\Cc1cc(O)ccc1O)CCc1c(C)c(O)c(O)c(C=O)c1C,–,> 100,–,> 100,–,> 100,–,–,–,43.2,–,51,–,–,–,–,–,–,–,95.7
CCN(CC)CCC(CNc1c(C)cnc2cc(Cl)ccc12)c1ccc(Cl)cc1 (stereo not given),–,–,–,–,4.45,26.9,12.3,34.1,11.9,25.5,0.0333,7.06,2.57,10.5,–,–,2.23,5.16,15.1,28.9
COc1ccc(-c2ccc(/C=N/n3c(COc4ccccc4Cl)n[nH]c3=S)o2)c([N+](=O)[O-])c1,14.4,40.6,–,–,22.4,56.4,32.5,98.7,17.7,46.7,34.8,76.7,21.8,86.2,28.4,63.5,–,–,35.4,> 100
